Laboratory results taken from US9802927B2, “Oxadiazine compounds and methods of use thereof” (Denali Therapeutics, Inc., priority 2015, dated 2017).

Test system: Aβ42
Assay: In vitro cell screening assay in H4 cells expressing human APP751: Aβ42 by sandwich ELISA
Type: cell-based
Details: Homo sapiens, compounds 0.003-10 μM, incubated overnight (16-18 h), sandwich ELISA of supernatant
Protocol: Human neuroglioma H4 cells were transfected with a pcDNA3.1 plasmid expressing human wild type APP751 cDNA and a stable cell line was generated using G418 selection. Cells were plated at 15,000 cells/well in Costar 96-well plates and placed at 37° C. and 5% CO2. Six hours after plating, cells were washed three times with Pro293™ chemically defined medium, followed by addition of compounds (0.003-10 μM, final DMSO concentration of 0.33%). Plates were incubated overnight (16-18 h) and supernatant was removed for quantification of Aβ peptides by sandwich ELISA. Cytotoxicity was evaluated using Cell-Titer 96W AQueous One Solution Cell Proliferation Assay according to the manufacturer's protocol.
Aβ peptide levels were quantified by sandwich ELISA. 96-well plates were coated with C-terminal specific Aβ antibodies recognizing either Aβ37, Aβ38, Aβ40, Aβ42, Aβ43 or a N-terminal specific Aβ antibody to detect Aβ 1-x. Plates were then blocked overnight at 4° C. with 1% bovine serum albumin (BSA) in PBS-T. Plates were washed and 100 μl of cultured cell supernatant or synthetic Aβ peptide standards and a detection antibody (4G8-HRP) were applied to the blocked plate and incubated overnight at 4° C. The next day, wells were washed before the addition of detection substrate (TMB peroxidase). Plates were then read for absorbance at 450 nm on a Molecular Devices SpectraMax M5e Microplate Reader.
Compound-treated samples were normalized to samples treated with DMSO alone (no inhibition) and to samples treated with DAPT. EC50 values were calculated from values reported as percent of DMSO controls using nonlinear regression, based on a sigmoidal dose response (variable slope) model. GraphPAD software from Prism used for calculation.

SMILES | EC50
COc1nc(C2=NOC[C@H](c3cc4ccccc4o3)N2)ccc1-n1cnc(C)c1 [Example 4, (R)-5-(Benzofuran-2-yl)-3-(6-methoxy-5-(4-methyl-1H-imidazol-1-yl)pyridin-2-yl)-5,6-dihydro-4H-1,2,4-oxadiazine] | 38.4 nM
COc1nc(C2=NOC[C@H](c3cc4ccc(C)cc4o3)N2)ccc1-n1cnc(C)c1 [Example 22, (R)-3-(6-Methoxy-5-(4-methyl-1H-imidazol-1-yl)pyridin-2-yl)-5-(6-methylbenzofuran-2-yl)-5,6-dihydro-4H-1,2,4-oxadiazine] | 18.4 nM

Same assay, conditions: compounds 0.003-10 μM, incubated overnight (16-18 h), sandwich ELISA of supernatant

EC50 | SMILES
13.2 nM | COc1nc(C2=NOCC(c3ccc(C4CC4)c(Cl)c3)N2)ccc1-n1cnc(C)c1 (single isomer, unassigned; (+)) [Example 243B, (+)-5-(3-chloro-4-cyclopropylphenyl)-3-(6-methoxy-5-(4-methyl-1H-imidazol-1-yl)pyridin-2-yl)-5,6-dihydro-4H-1,2,4-oxadiazine]
270 nM | COc1nc(C2=NOCC(c3ccc(C(C)(C)O)cc3)N2)ccc1-n1cnc(C)c1 (single isomer, unassigned; (+)) [Example 268B, (+)-2-(4-(3-(6-methoxy-5-(4-methyl-1H-imidazol-1-yl)pyridin-2-yl)-5,6-dihydro-4H-1,2,4-oxadiazin-5-yl)phenyl)propan-2-ol]
79.2 nM | COc1nc(C2=NOCC(c3cn(C)c4cccc(C#N)c34)N2)ccc1-n1cnc(C)c1 (single isomer, unassigned; (-)) [Example 247B, (−)-3-(3-(6-methoxy-5-(4-methyl-1H-imidazol-1-yl)pyridin-2-yl)-5,6-dihydro-4H-1,2,4-oxadiazin-5-yl)-1-methyl-1H-indole-4-carbonitrile]
15.5 nM | COc1nc(C2=NOCC(c3cn(C)c4ncc(C5CC5)cc34)N2)ccc1-n1cnc(C)c1 (single isomer, unassigned; (+)) [Example 266B, (+)-5-(5-cyclopropyl-1-methyl-1H-pyrrolo[2,3-b]pyridin-3-yl)-3-(6-methoxy-5-(4-methyl-1H-imidazol-1-yl)pyridin-2-yl)-5,6-dihydro-4H-1,2,4-oxadiazine]
1440 nM | COc1nc(C2=NOCC(c3ccc(C(C)(C)O)cc3)N2)ccc1-n1cnc(C)c1 (single isomer, unassigned; (-)) [Example 268A, (−)-2-(4-(3-(6-methoxy-5-(4-methyl-1H-imidazol-1-yl)pyridin-2-yl)-5,6-dihydro-4H-1,2,4-oxadiazin-5-yl)phenyl)propan-2-ol]
386 nM | COc1nc(C2=NOCC(c3nn(C)c4ccc(C(F)(F)F)cc34)N2)ccc1-n1cnc(C)c1 (single isomer, unassigned; (-)) [Example 241A, (−)-3-(6-methoxy-5-(4-methyl-1H-imidazol-1-yl)pyridin-2-yl)-5-(1-methyl-5-(trifluoromethyl)-1H-indazol-3-yl)-5,6-dihydro-4H-1,2,4-oxadiazine]
10 nM | COc1nc(C2=NOCC(c3ccc(C(F)(F)F)c(Cl)c3)N2)ccc1-n1cnc(C)c1 (single isomer, unassigned; (+)) [Example 262B, (+)-5-(3-chloro-4-(trifluoromethyl)phenyl)-3-(6-methoxy-5-(4-methyl-1H-imidazol-1-yl)pyridin-2-yl)-5,6-dihydro-4H-1,2,4-oxadiazine]
229 nM | COc1nc(C2=NOCC(c3cn(C)c4c(F)cccc34)N2)ccc1-n1cnc(C)c1 (single isomer, unassigned; (-)) [Example 231A, (−)-5-(7-fluoro-1-methyl-1H-indol-3-yl)-3-(6-methoxy-5-(4-methyl-1H-imidazol-1-yl)pyridin-2-yl)-5,6-dihydro-4H-1,2,4-oxadiazine]

The remaining lines, values behind:

SMILES | EC50
COc1nc(C2=NOCC(c3coc4ccccc34)N2)ccc1-n1cnc(C)c1 (single isomer, unassigned) [Example 38B, 5-(benzofuran-3-yl)-3-(6-methoxy-5-(4-methyl-1H-imidazol-1-yl)pyridin-2-yl)-5,6-dihydro-4H-1,2,4-oxadiazine] | 22.4 nM
COc1nc(C2=NOCC(C3CC(F)(F)C3)N2)ccc1-n1cnc(C)c1 (single isomer, unassigned; (+)) [Example 180B, (+)-5-(3,3-difluorocyclobutyl)-3-(6-methoxy-5-(4-methyl-1H-imidazol-1-yl)pyridin-2-yl)-5,6-dihydro-4H-1,2,4-oxadiazine] | 281 nM
COc1nc(C2=NOCC(c3csc4ccccc34)N2)ccc1-n1cnc(C)c1 (single isomer, unassigned; (+)) [Example 68B, (+)-5-(benzo [b]thiophen-3-yl)-3-(6-methoxy-5-(4-methyl-1H-imidazol-1-yl)pyridin-2-yl)-5,6-dihydro-4H-1,2,4-oxadiazine] | 20.8 nM
COc1nc(C2=NOCC(CC3CC3)N2)ccc1-n1cnc(C)c1 (single isomer, unassigned) [Example 159A, 5-(cyclopropylmethyl)-3-(6-methoxy-5-(4-methyl-1H-imidazol-1-yl)pyridin-2-yl)-5,6-dihydro-4H-1,2,4-oxadiazine] | > 3000 nM
COc1nc(C2=NOCC(c3ccc(F)c(C(F)(F)F)c3)N2)ccc1-n1cnc(C)c1 (single isomer, unassigned) [Example 44B, 5-(4-fluoro-3-(trifluoromethyl)phenyl)-3-(6-methoxy-5-(4-methyl-1H-imidazol-1-yl)pyridin-2-yl)-5,6-dihydro-4H-1,2,4-oxadiazine] | 21.6 nM
COc1nc(C2=NOCC(c3cc4cc(F)ccc4o3)N2)ccc1-n1cnc(C)c1 (single isomer, unassigned; (-)) [Example 84A, (−)-5-(5-fluorobenzofuran-2-yl)-3-(6-methoxy-5-(4-methyl-1H-imidazol-1-yl)pyridin-2-yl)-5,6-dihydro-4H-1,2,4-oxadiazine] | 944 nM
COc1nc(C2=NOCC(c3ccc(Cl)c(Cl)c3)N2)ccc1-n1cnc(C)c1 (single isomer, unassigned; (-)) [Example 49A, (−)-5-(3,4-dichlorophenyl)-3-(6-methoxy-5-(4-methyl-1H-imidazol-1-yl)pyridin-2-yl)-5,6-dihydro-4H-1,2,4-oxadiazine] | > 3000 nM
COc1nc(C2=NOCC(c3nc4ccccc4s3)N2)ccc1-n1cnc(C)c1 (single isomer, unassigned; (+)) [Example 208B, (+)-5-(benzo [d]thiazol-2-yl)-3-(6-methoxy-5-(4-methyl-1H-imidazol-1-yl)pyridin-2-yl)-5,6-dihydro-4H-1,2,4-oxadiazine] | 74 nM
COc1nc(C2=NOCC(c3cn(C(C)C)c4cccc(F)c34)N2)ccc1-n1cnc(C)c1 (single isomer, unassigned; (-)) [Example 196B, (−)-5-(4-fluoro-1-isopropyl-1H-indol-3-yl)-3-(6-methoxy-5-(4-methyl-1H-imidazol-1-yl)pyridin-2-yl)-5,6-dihydro-4H-1,2,4-oxadiazine] | 220 nM
COc1nc(C2=NOCC(c3cc(F)cc(Cl)c3)N2)ccc1-n1cnc(C)c1 (single isomer, unassigned; (+)) [Example 111B, (+)-5-(3-chloro-5-fluorophenyl)-3-(6-methoxy-5-(4-methyl-1H-imidazol-1-yl)pyridin-2-yl)-5,6-dihydro-4H-1,2,4-oxadiazine] | 22.6 nM
COc1nc(C2=NOCC(c3cn(C)c4ncccc34)N2)ccc1-n1cnc(C)c1 (single isomer, unassigned; (+)) [Example 195B, (+)-3-(6-methoxy-5-(4-methyl-1H-imidazol-1-yl)pyridin-2-yl)-5-(1-methyl-1H-pyrrolo [2,3-b]pyridin-3-yl)-5,6-dihydro-4H-1,2,4-oxadiazine] | 163 nM
COc1nc(C2=NOCC(c3sc4ccccc4c3C)N2)ccc1-n1cnc(C)c1 (single isomer, unassigned; (-)) [Example 66A, (−)-3-(6-methoxy-5-(4-methyl-1H-imidazol-1-yl)pyridin-2-yl)-5-(3-methylbenzo [b]thiophen-2-yl)-5,6-dihydro-4H-1,2,4-oxadiazine] | 651 nM
COc1nc(C2=NOCC(c3cc(Cl)cc(Cl)c3)N2)ccc1-n1cnc(C)c1 (single isomer, unassigned; (-)) [Example 118A, (−)-5-(3,5-dichlorophenyl)-3-(6-methoxy-5-(4-methyl-1H-imidazol-1-yl)pyridin-2-yl)-5,6-dihydro-4H-1,2,4-oxadiazine] | 1510 nM
COc1nc(C2=NOCC(c3cn(C)c4ccc(F)cc34)N2)ccc1-n1cnc(C)c1 (single isomer, unassigned; (+)) [Example 190B, (+)-5-(5-fluoro-1-methyl-1H-indol-3-yl)-3-(6-methoxy-5-(4-methyl-1H-imidazol-1-yl)pyridin-2-yl)-5,6-dihydro-4H-1,2,4-oxadiazine] | 19.5 nM
COc1nc(C2=NOCC(c3cc(F)cc(F)c3)N2)ccc1-n1cnc(C)c1 (single isomer, unassigned; (-)) [Example 81A, (−)-5-(3,5-difluorophenyl)-3-(6-methoxy-5-(4-methyl-1H-imidazol-1-yl)pyridin-2-yl)-5,6-dihydro-4H-1,2,4-oxadiazine] | > 3000 nM
